molecular target: T1, human EP2 (PTGER2) (Homo sapiens, UniProt P43116); assay: EP2 antagonist assay (HEK-293 CNG membrane potential cAMP assay / 293T SEAP reporter assay, PGE2-stimulated); type: cell-based; settings: EP2 antagonist activity; concentration for 50% inhibition of signal compared to DMSO
T1 construct: Cayman Chemical (Human EP2 Reporter Assay Kit)
From the text: 1. The HEK-293 CNG (Cyclic Nucleotide Gated) cell line expressing a modified CNG channel that leads to cell membrane depolarization in response to elevated intracellular cAMP levels, which can be measured using a fluorescent membrane potential dye, was engineered to express human EP2 (PTGER2) or EP4 (EP4R). The resulting cell line ACTOne™ PTGER2 or ACTOne™ EP4R as well as the fluorescent membrane potential dye were purchased from eEnzyme (Gaithersburg, MD, US) and used in this assay. Briefly, cells were plated at 1.2×10^4 cells/well in 20 μL DMEM supplemented with 2% Fetal Bovine Serum (FBS, VWR International), 1x Penicillin/Streptomycin (GenClone), 0.2 μg/mL puromycin (InvivoGen) and 50 μg/mL G418 (InvivoGen) on a 384 well plate (Greiner). The next day, cells were dye-loaded with 20 μL/well of 1x Dye-loading solution (eENZYME) following the manufacturer's instruction. After 2 hours of incubation at room temperature (RT) in the dark, a pre-read was made to obtain the background signals using CLARIOstar plate reader (BMG LABTECH, Germany) with the following filter settings: excitation=530/20 nm, emission=590/20 nm. Next, a serial dilution of compound (plus a DMSO control) were added to the plate (5 μL/well) and the reaction was incubated at RT for 15 min before adding 5 μL of PGE2 to every well for a final concentration of 5 nM. All wells were duplicated. The plate was then further incubated at RT for 30 min prior to a final read with the same machine settings. Background-subtracted signals were used to calculate IC50 values.
2. Human EP2 and EP4 Reporter Assay Kits were purchased from Cayman Chemical (Ann Arbor, MI, USA). The assay was performed following the provided User Manual. Briefly, a reverse transfection was performed by seeding 6.0×10^4 of 293T cells (ATCC) to each well of the provided Strip Plate coated with a proprietary transfection complex containing DNA constructs for expressing human EP2 or EP4 and a cAMP response element regulated secreted alkaline phosphatase (SEAP) reporter, in 200 μL DMEM supplemented with 2% FBS and incubated for 20-24 hours at 37° C. with 5% CO2. After the incubation, the culture medium was carefully removed, and the cells were replenished with 150 μL pre-warmed serum-free medium. PGE2 and test compounds were prepared together at 4x the desired final concentration, and 50 μL was added to each assigned well with the final concentration of 13 nM and 2 nM PGE2 for EP2 and EP4 assay, respectively. After 6-8 hours of incubation, 10 μL media from each well was transferred to corresponding well of a new plate, which was then sealed and incubated at 65° C. for 30 min. The plate was then cooled down to RT and 50 μL SEAP substrate was added to each well. Luminescence signal was measured using a CLARIOstar plate reader.
The IC50 value was determined as the concentration for 50% inhibition of signal compared to DMSO (A: IC50 […]; B: IC50 between 100 nM and 1,000 nM; C: IC50≥1,000 nM).

T1 sequence (P43116 whole entry): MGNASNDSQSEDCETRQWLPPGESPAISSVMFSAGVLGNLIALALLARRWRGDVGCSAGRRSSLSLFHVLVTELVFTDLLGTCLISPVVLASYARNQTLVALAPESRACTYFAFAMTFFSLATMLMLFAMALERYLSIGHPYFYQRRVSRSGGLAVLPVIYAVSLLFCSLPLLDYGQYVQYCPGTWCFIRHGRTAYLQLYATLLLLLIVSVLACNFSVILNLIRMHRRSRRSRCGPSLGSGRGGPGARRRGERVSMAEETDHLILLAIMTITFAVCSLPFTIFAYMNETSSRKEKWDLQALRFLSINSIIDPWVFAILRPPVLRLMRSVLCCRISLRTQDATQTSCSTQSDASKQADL

Row | IC50 [nM] | SMILES
1 | ≥ 1000 | O=C(O)c1ccc(CNC(=O)c2ccc(-c3ccc(F)c(F)c3)c3ccn(Cc4ccc(C(F)(F)F)cc4)c23)cc1 [Example 23, 4-((4-(3,4-difluorophenyl)-1-(4-(trifluoromethyl)benzyl)-1H-indole-7-carboxamido)methyl) benzoic acid]
2 | ≥ 1000 | O=C(O)c1ccc(CNC(=O)c2ccc(-c3cccc(C(F)(F)F)c3)c3ccn(Cc4ccc(C(F)(F)F)cc4)c23)cc1 [Example 24, 4-((1-(4-(trifluoromethyl)benzyl)-4-(3-(trifluoromethyl)phenyl)-1H-indole-7-carboxamido)-methyl)benzoic acid]
3 | ≥ 1000 | O=C(O)c1ccc(CNC(=O)c2ccc(-c3ccc(F)cc3)c3ccn(Cc4ccc(C(F)(F)F)cc4)c23)cc1 [Example 25, 4-((4-(4-fluorophenyl)-1-(4-(trifluoromethyl)benzyl)-1H-indole-7-carboxamido)methyl)benzoic acid]
4 | 100 to 1000 | O=C(O)c1ccc(CNC(=O)c2ccc(-c3ccccc3)c3ccn(Cc4ccc(C(F)(F)F)cc4)c23)cc1 [Example 26, 4-((4-phenyl-1-(4-(trifluoromethyl)benzyl)-1H-indole-7-carboxamido)methyl)benzoic acid]
5 | ≥ 1000 | O=C(O)c1ccc(CNC(=O)c2ccc(-c3cc(F)cc(F)c3)c3ccn(Cc4ccc(C(F)(F)F)cc4)c23)cc1 [Example 27, 4-((4-(3,5-difluorophenyl)-1-(4-(trifluoromethyl)benzyl)-1H-indole-7-carboxamido)methyl) benzoic acid]
6 | ≥ 1000 | O=C(O)c1ccc(CNC(=O)c2ccc(-c3cc(F)cc(C(F)(F)F)c3)c3ccn(Cc4ccc(C(F)(F)F)cc4)c23)cc1 [Example 28, 4-((4-(3-fluoro-5-(trifluoromethyl)phenyl)-1-(4-(trifluoromethyl)benzyl)-1H-indole-7-carboxamido)methyl)benzoic acid]
7 | ≥ 1000 | C[C@@H](NC(=O)c1ccc(-c2ccccc2)c2ccn(Cc3ccc(C(F)(F)F)cc3)c12)c1ccc(C(=O)O)cc1 [Example 29, (R)-4-(1-(4-phenyl-1-(4-(trifluoromethyl)benzyl)-1H-indole-7-carboxamido)ethyl) benzoic acid]
8 | ≥ 1000 | C[C@@H](NC(=O)c1ccc(-c2cccc(C#N)c2)c2ccn(Cc3ccc(C(F)(F)F)cc3)c12)c1ccc(C(=O)O)cc1 [Example 30, (R)-4-(1-(4-(3-cyanophenyl)-1-(4-(trifluoromethyl)benzyl)-1H-indole-7-carboxamido)ethyl) benzoic acid]
9 | ≥ 1000 | C[C@@H](NC(=O)c1ccc(-c2ccc(F)c(F)c2)c2ccn(Cc3ccc(C(F)(F)F)cc3)c12)c1ccc(C(=O)O)cc1 [Example 31, (R)-4-(1-(4-(3,4-difluorophenyl)-1-(4-(trifluoromethyl)benzyl)-1H-indole-7-carboxamido)ethyl)benzoic acid]
10 | ≥ 1000 | C[C@@H](NC(=O)c1ccc(-c2cc(F)cc(F)c2)c2ccn(Cc3ccc(C(F)(F)F)cc3)c12)c1ccc(C(=O)O)cc1 [Example 32, (R)-4-(1-(4-(3,5-difluorophenyl)-1-(4-(trifluoromethyl)benzyl)-1H-indole-7-carboxamido)ethyl) benzoic acid]
11 | ≥ 1000 | C[C@@H](NC(=O)c1ccc(-c2cccc(C(F)(F)F)c2)c2ccn(Cc3ccc(C(F)(F)F)cc3)c12)c1ccc(C(=O)O)cc1 [Example 33, (R)-4-(1-(1-(4-(trifluoromethyl)benzyl)-4-(3-(trifluoromethyl)phenyl)-1H-indole-7-carboxamido)ethyl) benzoic acid]
12 | ≥ 1000 | C[C@@H](NC(=O)c1ccc(-c2cc(F)cc(C(F)(F)F)c2)c2ccn(Cc3ccc(C(F)(F)F)cc3)c12)c1ccc(C(=O)O)cc1 [Example 34, (R)-4-(1-(4-(3-fluoro-5-(trifluoromethyl)phenyl)-1-(4-(trifluoromethyl)benzyl)-1H-indole-7-carboxamido)ethyl)benzoic acid]
13 | ≥ 1000 | C[C@@H](NC(=O)c1ccc(-c2ccc(F)cc2)c2ccn(Cc3ccc(C(F)(F)F)cc3)c12)c1ccc(C(=O)O)cc1 [Example 35, (R)-4-(1-(4-(4-fluorophenyl)-1-(4-(trifluoromethyl)benzyl)-1H-indole-7-carboxamido)ethyl)benzoic acid]
14 | ≥ 1000 | O=C(O)c1ccc(C2(NC(=O)c3ccc(-c4ccccc4)c4ccn(Cc5ccc(C(F)(F)F)cc5)c34)CC2)cc1 [Example 36, 4-(1-(4-phenyl-1-(4-(trifluoromethyl)benzyl)-1H-indole-7-carboxamido)cyclopropyl)benzoic acid]
15 | ≥ 1000 | N#Cc1cccc(-c2ccc(C(=O)NC3(c4ccc(C(=O)O)cc4)CC3)c3c2ccn3Cc2ccc(C(F)(F)F)cc2)c1 [Example 37, 4-(1-(4-(3-cyanophenyl)-1-(4-(trifluoromethyl)benzyl)-1H-indole-7-carboxamido)cyclopropyl)benzoic acid]
16 | ≥ 1000 | O=C(O)c1ccc(C2(NC(=O)c3ccc(-c4ccc(F)c(F)c4)c4ccn(Cc5ccc(C(F)(F)F)cc5)c34)CC2)cc1 [Example 38, 4-(1-(4-(3,4-difluorophenyl)-1-(4-(trifluoromethyl)benzyl)-1H-indole-7-carboxamido)cyclopropyl)benzoic acid]
17 | 100 to 1000 | O=C(O)c1ccc(C2(NC(=O)c3ccc(-c4cc(F)cc(F)c4)c4ccn(Cc5ccc(C(F)(F)F)cc5)c34)CC2)cc1 [Example 39, 4-(1-(4-(3,5-difluorophenyl)-1-(4-(trifluoromethyl)benzyl)-1H-indole-7-carboxamido)cyclopropyl)benzoic acid]
18 | ≥ 1000 | O=C(O)c1ccc(C2(NC(=O)c3ccc(-c4cccc(C(F)(F)F)c4)c4ccn(Cc5ccc(C(F)(F)F)cc5)c34)CC2)cc1 [Example 40, 4-(1-(1-(4-(trifluoromethyl)benzyl)-4-(3-(trifluoromethyl)phenyl)-1H-indole-7-carboxamido)cyclopropyl)benzoic acid]
19 | ≥ 1000 | O=C(O)c1ccc(C2(NC(=O)c3ccc(-c4cc(F)cc(C(F)(F)F)c4)c4ccn(Cc5ccc(C(F)(F)F)cc5)c34)CC2)cc1 [Example 41, 4-(1-(4-(3-fluoro-5-(trifluoromethyl)phenyl)-1-(4-(trifluoromethyl)benzyl)-1H-indole-7-carboxamido)cyclopropyl)benzoic acid]
20 | ≥ 1000 | O=C(O)c1ccc(C2(NC(=O)c3ccc(-c4ccc(F)cc4)c4ccn(Cc5ccc(C(F)(F)F)cc5)c34)CC2)cc1 [Example 42, 4-(1-(4-(4-fluorophenyl)-1-(4-(trifluoromethyl)benzyl)-1H-indole-7-carboxamido)cyclopropyl)-benzoic acid]
21 | < 100 | O=C(O)c1ccc(C2(NC(=O)c3cc(Nc4ccccc4)cc4ccn(Cc5ccc(C(F)(F)F)cc5)c34)CC2)cc1 [Example 43, 4-(1-(5-(phenylamino)-1-(4-(trifluoromethyl)benzyl)-1H-indole-7-carboxamido)cyclopropyl)benzoic acid]
22 | 100 to 1000 | CN(c1ccccc1)c1cc(C(=O)NCc2ccc(C(=O)O)cc2)c2c(ccn2Cc2ccc(C(F)(F)F)cc2)c1 [Example 45, 4-((5-(methyl(phenyl)amino)-1-(4-(trifluoromethyl)benzyl)-1H-indole-7-carboxamido)methyl)benzoic acid]
23 | ≥ 1000 | CN(c1ccccc1)c1ccc(C(=O)NC2(c3ccc(C(=O)O)cc3)CC2)c2c1ccn2Cc1ccc(C(F)(F)F)cc1 [Example 46, 4-(1-(4-(methyl(phenyl)amino)-1-(4-(trifluoromethyl)benzyl)-1H-indole-7-carboxamido)cyclopropyl)benzoic acid]
24 | ≥ 1000 | O=C(O)c1ccc(CNC(=O)c2cc(Nc3ccccc3)cc3ccn(Cc4ccc(C(F)(F)F)cc4)c23)cc1 [Example 47, 4-((5-(phenylamino)-1-(4-(trifluoromethyl)benzyl)-1H-indole-7-carboxamido)methyl)benzoic acid]
25 | 100 to 1000 | O=C(O)c1ccc(C2(NC(=O)c3cc(Oc4ccccc4)cc4ccn(Cc5ccc(C(F)(F)F)cc5)c34)CC2)cc1 [Example 49, 4-(1-(5-phenoxy-1-(4-(trifluoromethyl)benzyl)-1H-indole-7-carboxamido)cyclopropyl)benzoic acid]
